Measurements taken from US9593144B2, “FPR1 antagonist derivatives and use thereof” (CHANG GUNG UNIVERSITY, priority 2014, dated 2017).
Where two headings read alike, the source gives them in different places. Square brackets hold non-standard residues; d marks the D form. Peptide text beside a SMILES is read from it. * marks the point of attachment. dPhe(4-NO2) = N[C@H](Cc1ccc([N+](=O)[O-])cc1)C(=O)O; Trp(5-OH) = N[C@@H](Cc1c[nH]c2ccc(O)cc12)C(=O)O; dPhe(4-Cl) = N[C@H](Cc1ccc(Cl)cc1)C(=O)O; Nicotinoyl = O=C(c1cccnc1)*; PhAc = O=C(Cc1ccccc1)*; Bz = O=C(c1ccccc1)*

What was measured:
human neutrophils [1] = assay: cells; type: cell-based; conditions: for IC50: mean ± SEM
Experimental: Degranulation of azurophilic granules was determined by elastase release as described above. Experiments were performed using MeO-Suc-[…]-nitroanilide as the elastase substrate. […] Results are expressed as the percentage of elastase release in the drug-free control group, DMSO. Tables 5 and 6 explore whether there is an anti-inflamatory effect in the dipeptide derivatives. Because ferricytochrome c cannot penetrate cell membranes, it reacts with superoxide anion extracellularly. Also, there are absorptive reactions at 550 nm, and differences among the absorptive reactions can be used to evaluate the influence on the release of superoxide anion. The elastase is released by degranulation as the neutrophil is activated. Tables 5 and 6 use the substrate, MeO-Suc-[…]-nitroanilide, with the specificity for reacting with the elastase so as to evaluate the influence of the candidate compound on the elastase release. Blood was taken from healthy human donors (20-32 years old) by venipuncture, following a protocol approved by the Institutional Review Board at Chang Gung Memorial Hospital. Neutrophils were isolated by a standard method of dextran sedimentation prior to centrifugation in a Ficoll Hypaque gradient and the hypotonic lysis of erythrocytes. […] The degranulation of azurophilic granules was determined by elastase release as described above. Experiments were performed using MeO-Suc-[…]-nitroanilide as the elastase substrate. Briefly, after supplementation with MeO-Suc-[…]-nitroanilide ([…] neutrophils (6×10^5 ml^-1) were equilibrated at 37° C. for 2 min and incubated with drugs for 5 min. […] The results are expressed as the percentage of elastase release in the drug-free control group.

human neutrophils [2] = assay: cells; type: cell-based; conditions: for IC50: mean ± SEM; remark: listed apart in the source
Excerpt: Tables 5 and 6 explore whether there is an anti-inflamatory effect in the dipeptide derivatives. Because ferricytochrome c cannot penetrate cell membranes, it reacts with superoxide anion extracellularly. Also, there are absorptive reactions at 550 nm, and differences among the absorptive reactions can be used to evaluate the influence on the release of superoxide anion. The elastase is released by degranulation as the neutrophil is activated. Tables 5 and 6 use the substrate, MeO-Suc-Ala-Ala-Pro-Val-p-nitroanilide, with the specificity for reacting with the elastase so as to evaluate the influence of the candidate compound on the elastase release.
Blood was taken from healthy human donors (20-32 years old) by venipuncture, following a protocol approved by the Institutional Review Board at Chang Gung Memorial Hospital. Neutrophils were isolated by a standard method of dextran sedimentation prior to centrifugation in a Ficoll Hypaque gradient and the hypotonic lysis of erythrocytes.
The evaluation of O2.^− generation was based on the SOD-inhibitable reduction of ferricytochrome c. In brief, after supplementation with 0.5 mg ml^−1 ferricytochrome c and 1 mM Ca^2+, neutrophils were equilibrated at 37° C. for 2 min and incubated with drugs […].

[3] = Neutrophil, fMLP/CB, n = 3, Table 1, read-out: Anti-inflammation NE release (IC50)
[4] = Neutrophil, human neutrophils, fMLP/CB, n = 3, Table 1, read-out: Anti-inflammation O2•− generation (IC50)
[5] = fMLP/CB, n = 3, Table 1, read-out: Anti-inflammation NE release (IC50)
[6] = human neutrophils, fMLP/CB, n = 3, Table 1, read-out: Anti-inflammation O2•− generation (IC50)
[7] = fMLP/CB, n = 3, Table 2, read-out: Anti-inflammation NE release (IC50)
[8] = human neutrophils, fMLP/CB, n = 3, Table 2, read-out: Anti-inflammation O2•− generation (IC50)
[9] = fMLP/CB, n = 3, Table 3, read-out: Anti-inflammation NE release (IC50)
[10] = human neutrophils, fMLP/CB, n = 3, Table 3, read-out: Anti-inflammation O2•− generation (IC50)

COC(=O)[C@@H](Cc1ccccc1)NC(=O)[C@H](Cc1c[nH]c2ccccc12)NC(=O)c1ccc(F)cc1 [Compound 4, N—(N-4-Fluorobenzoyl-L-tryptophanyl)-D-phenylalanine methyl ester]
IC50 (human neutrophils [1]; [3]): > 30 µM
IC50 (human neutrophils [2]; [4]): > 30 µM
melting point: 191 to 193 °C

COC(=O)[C@@H](Cc1ccccc1)NC(=O)[C@H](Cc1c[nH]c2ccccc12)NC(=O)c1ccc(Cl)cc1 [Compound 5, N—(N-4-Chlorobenzoyl-L-tryptophanyl)-D-phenylalanine methyl ester]
IC50 (human neutrophils [1]; [3]): 10.4 ± 4.61 µM
IC50 (human neutrophils [2]; [4]): > 30 µM
melting point: 191 to 193 °C

COC(=O)[C@@H](Cc1ccccc1)NC(=O)[C@H](Cc1c[nH]c2ccccc12)NC(=O)c1ccc(C)cc1 [Compound 6, N—(N-4-Methylbenzoyl-L-tryptophanyl)-D-phenylalanine methyl ester]
IC50 (human neutrophils [1]; Neutrophil, WKYMVm, n = 4 or 8, Table 6, read-out: Elastase release WKYMVm IC50): 1.96 ± 0.11 µM
IC50 (human neutrophils [1]; Neutrophil, WKYMVm/CB, n = 3, Table 4, read-out: WKYMVm/CB NE release (IC50)): 1.96 ± 0.11 µM
IC50 (human neutrophils [1]; Neutrophil, fMLF, n = 4 or 8, Table 6, read-out: Elastase release fMLF IC50): 2.47 ± 0.25 µM
IC50 (human neutrophils [1]; Neutrophil, fMLF/CB, n = 3, Table 4, read-out: fMLF/CB NE release (IC50)): 2.47 ± 0.25 µM
IC50 (human neutrophils [1]; [3]): 2.47 ± 0.25 µM
IC50 (human neutrophils [2]; Neutrophil, WKYMVm, n = 4 or 8, Table 5, read-out: Superoxide anion WKYMVm IC50): 6.55 ± 0.59 µM
IC50 (human neutrophils [2]; Neutrophil, WKYMVm/CB, n = 3, Table 4, read-out: WKYMVm/CB O2•− generation (IC50)): 6.55 ± 0.59 µM
IC50 (human neutrophils [2]; Neutrophil, human neutrophils, fMLF/CB, n = 3, Table 4, read-out: fMLF/CB O2•− generation (IC50)): 1.88 ± 0.29 µM
IC50 (human neutrophils [2]; Neutrophil, human neutrophils, fMLF, n = 4 or 8, Table 5, read-out: Superoxide anion fMLF IC50): 1.88 ± 0.29 µM
IC50 (human neutrophils [2]; [4]): 1.88 ± 0.29 µM
melting point: 169 to 171 °C

COC(=O)[C@@H](Cc1ccccc1)NC(=O)[C@H](Cc1c[nH]c2ccccc12)NC(=O)c1ccc(OC)cc1 [Compound 7, N—(N-4-Methoxylbenzoyl-L-tryptophanyl)-D-phenylalanine methyl ester]
IC50 (human neutrophils [1]; [3]): > 30 µM
IC50 (human neutrophils [2]; [4]): > 30 µM
melting point: 151 to 153 °C

COC(=O)[C@@H](Cc1ccccc1)NC(=O)[C@H](Cc1c[nH]c2ccccc12)NC(=O)Cc1ccccc1 [Compound 8, N—(N-Phenylacetyl-L-tryptophanyl)-D-phenylalanine methyl ester] (PhAc-Trp-[dF]-OMe)
IC50 (human neutrophils [1]; [3]): 5.71 ± 0.39 µM
IC50 (human neutrophils [2]; [4]): 10.2 ± 4.53 µM
melting point: 182 to 184 °C

COC(=O)[C@@H](Cc1ccccc1)NC(=O)[C@H](Cc1c[nH]c2ccc(O)cc12)NC(=O)c1ccccc1 [Compound 11a, N—(N-Benzoyl-5-hydroxy-L-tryptophanyl)-D-phenylalanine methyl esters] (Bz-[Trp(5-OH)]-[dF]-OMe)
IC50 (human neutrophils [1]; [5]): 9.11 ± 0.76 µM
IC50 (human neutrophils [2]; [6]): 8.81 ± 1.22 µM

COC(=O)[C@@H](Cc1ccccc1)NC(=O)[C@H](Cc1c[nH]c2ccc(O)cc12)NC(=O)c1ccccc1 [Compound 11b, N—(N-Benzoyl-5-hydroxy-L-tryptophanyl)-D-phenylalanine methyl esters] (Bz-[Trp(5-OH)]-[dF]-OMe)
IC50 (human neutrophils [1]; [5]): 22.1 ± 4.96 µM
IC50 (human neutrophils [2]; [6]): 18.7 ± 4.02 µM

O=C(N[C@@H](Cc1c[nH]c2ccccc12)C(=O)N[C@@H](CO)Cc1cccc(O)c1)c1ccccc1 [Compound 12a, N—(N-Benzoyl-L-tryptophanyl)-5-hydroxy-D-phenylalaninol]
IC50 (human neutrophils [1]; Neutrophil, fMLP/CB, n = 3, Table 3, read-out: Anti-inflammation NE release (IC50)): > 30 µM
IC50 (human neutrophils [2]; Neutrophil, human neutrophils, fMLP/CB, n = 3, Table 3, read-out: Anti-inflammation O2•− generation (IC50)): > 30 µM

COC(=O)[C@@H](Cc1ccccc1)NC(=O)[C@H](Cc1c[nH]c2ccccc12)NC(=O)c1cccnc1 [Compound 15a, N—(N-nicotinoyl-L-tryptophanyl)-D-phenylalanine methyl esters] (Nicotinoyl-Trp-[dF]-OMe)
IC50 (human neutrophils [1]; [5]): > 30 µM
IC50 (human neutrophils [2]; [6]): 13.1 ± 0.5 µM

COC(=O)[C@@H](Cc1ccccc1)NC(=O)[C@H](Cc1c[nH]c2ccccc12)NC(=O)c1cccnc1 [Compound 15b, N—(N-nicotinoyl-L-tryptophanyl)-D-phenylalanine methyl esters] (Nicotinoyl-Trp-[dF]-OMe)
IC50 (human neutrophils [1]; [5]): > 30 µM
IC50 (human neutrophils [2]; [6]): > 30 µM

COC(=O)[C@@H](Cc1ccc([N+](=O)[O-])cc1)NC(=O)[C@H](Cc1c[nH]c2ccccc12)NC(=O)c1ccccc1 [Compound 18a, N—(N-Benzoyl-L-tryptophanyl)-para-nitro-D-phenylalanine methyl esters] (Bz-Trp-[dPhe(4-NO2)]-OMe)
IC50 (human neutrophils [1]; [7]): 11.2 ± 0.46 µM
IC50 (human neutrophils [2]; [8]): 19 ± 2.7 µM

COC(=O)[C@@H](Cc1ccc([N+](=O)[O-])cc1)NC(=O)[C@H](Cc1c[nH]c2ccccc12)NC(=O)c1ccccc1 [Compound 18b, N—(N-Benzoyl-L-tryptophanyl)-para-nitro-D-phenylalanine methyl esters] (Bz-Trp-[dPhe(4-NO2)]-OMe)
IC50 (human neutrophils [1]; [7]): 15.4 ± 0.54 µM
IC50 (human neutrophils [2]; [8]): 13.1 ± 0.4 µM

COC(=O)[C@@H](Cc1ccc(Cl)cc1)NC(=O)[C@H](Cc1c[nH]c2ccccc12)NC(=O)c1ccccc1 [Compound 21a, N—(N-Benzoyl-L-tryptophanyl)-para-chloro-D-phenylalanine methyl esters] (Bz-Trp-[dPhe(4-Cl)]-OMe)
IC50 (human neutrophils [1]; [7]): 4.31 ± 0.52 µM
IC50 (human neutrophils [2]; [8]): 4.41 ± 0.27 µM

COC(=O)[C@@H](Cc1ccc(Cl)cc1)NC(=O)[C@H](Cc1c[nH]c2ccccc12)NC(=O)c1ccccc1 [Compound 21b, N—(N-Benzoyl-L-tryptophanyl)-para-chloro-D-phenylalanine methyl esters] (Bz-Trp-[dPhe(4-Cl)]-OMe)
IC50 (human neutrophils [1]; [7]): 12.4 ± 3.53 µM
IC50 (human neutrophils [2]; [8]): 5.26 ± 0.84 µM

N#CCNC(=O)[C@@H](Cc1ccccc1)NC(=O)[C@H](Cc1c[nH]c2ccccc12)NC(=O)c1ccccc1 [Compound 27a, N—(N-benzoyl-L-tryptophanyl)-D-phenylalanine-glycine-nitriles]
Elastase release WKYMVm Inh % (human neutrophils [1]; WKYMVm, inhibitory percentage under 10 μM, Table 6): 35.9 ± 0.8 %
Elastase release fMLF Inh % (human neutrophils [1]; fMLF, inhibitory percentage under 10 μM, Table 6, listed as HCH 90-2-2): 28.79 ± 2.6 %
IC50 (human neutrophils [1]; [9]): 4.69 ± 0.8 µM
Superoxide anion WKYMVm Inh % (human neutrophils [2]; WKYMVm, inhibitory percentage under 10 μM, Table 5, listed as HCH 90-2-2): 28.79 ± 2.6 %
IC50 (human neutrophils [2]; human neutrophils, fMLF, n = 4 or 8, Table 5, read-out: Superoxide anion fMLF IC50): 6.23 ± 1.05 µM
IC50 (human neutrophils [2]; [10]): 4.23 ± 2.44 µM

N#CCNC(=O)[C@@H](Cc1ccccc1)NC(=O)[C@H](Cc1c[nH]c2ccccc12)NC(=O)c1ccccc1 [Compound 27b, N—(N-benzoyl-L-tryptophanyl)-D-phenylalanine-glycine-nitriles]
IC50 (human neutrophils [1]; WKYMVm, n = 4 or 8, Table 6, read-out: Elastase release WKYMVm IC50): 6.65 ± 0.23 µM
Elastase release fMLF Inh % (human neutrophils [1]; fMLF, inhibitory percentage under 10 μM, Table 6, listed as HCH 90-2-1): 18.66 ± 0.7 %
IC50 (human neutrophils [1]; [9]): 14.5 ± 2.87 µM
Superoxide anion WKYMVm Inh % (human neutrophils [2]; WKYMVm, inhibitory percentage under 10 μM, Table 5, listed as HCH 90-2-1): 18.66 ± 0.7 %
Superoxide anion fMLF Inh % (human neutrophils [2]; human neutrophils, fMLF, inhibitory percentage under 10 μM, Table 5): 34.61 ± 4.1 %
IC50 (human neutrophils [2]; [10]): 10.5 ± 4.23 µM

C/C=C/C[C@@H](C)[C@@H](O)[C@H]1C(=O)N[C@@H](CC)C(=O)N(C)CC(=O)N(C)[C@@H](CC(C)C)C(=O)N[C@@H](C(C)C)C(=O)N(C)[C@@H](CC(C)C)C(=O)N[C@@H](C)C(=O)N[C@H](C)C(=O)N(C)[C@@H](CC(C)C)C(=O)N(C)[C@@H](CC(C)C)C(=O)N(C)[C@H](C(C)C)C(=O)N1C [CycH, Cyclosporin H, reference compound]
IC50 (human neutrophils [1]; WKYMVm/CB, n = 3, Table 4, read-out: WKYMVm/CB NE release (IC50)): 0.17 ± 0.01 µM

CC(C)(C)C(=O)Oc1ccc(S(=O)(=O)Nc2ccccc2C(=O)NCC(=O)O)cc1 [Sivelestat, reference compound]
IC50 (human neutrophils [1]; [3]): 0.046 ± 0.02 µM
